Experimental data: paper PMC7872314, “Modeling Bioavailable Concentrations in Zebrafish Cell Lines and Embryos Increases the Correlation of Toxicity Potencies across Test Systems” (Environmental Science & Technology, 2020)
Read-outs that look alike come from different tables or passages of the source.

Columns and labels:
[1] = test system: zebrafish cell lines vs zebrafish embryo; assay: Potency ratios IC50;x/EC50;x (cytotoxicity assays vs mFET); set-up: species or system zebrafish (Danio rerio); conditions: median over cytotoxicity endpoints, nominal, 48 h cells / 48 hpf mFET
[2] = test system: ZF4 (fibroblasts) cell line; assay: BCA assay (MTS/BCA multiplex), protein amount; assay type: cell-based, zebrafish (Danio rerio); conditions: Danio rerio, Fibroblast
[3] = test system: zebrafish embryos; set-up: method as in earlier work; conditions: nominal, cited from earlier work
[4] = test system: diverse mammalian cell assay results; set-up: method as in https://comptox.epa.gov/dashboard/; conditions: COMPTOX; ref https://comptox.epa.gov/dashboard/; read-out: median AC50; cited from earlier work
[5] = test system: ZFL (hepatocytes) cell line; assay: cells; assay type: cell-based, zebrafish (Danio rerio); conditions: Danio rerio, Hepatocyte
[6] = test system: zebrafish embryos; assay: animal or person; assay type: in vivo, zebrafish (Danio rerio); conditions: for EC50: Danio rerio
[7] = test system: ZF4 and ZFL cell lines; assay: Cytotoxicity assays, all endpoints, both cell lines (mean/range); assay type: cell-based, zebrafish (Danio rerio); conditions: 48 h, mean of all cytotoxicity endpoints (without LDH) in ZF4 and ZFL
[8] = test system: ZFL (hepatocytes) cell line; assay: cells; assay type: cell-based, zebrafish (Danio rerio); conditions: Danio rerio, Hepatocyte; remark: listed apart in the source
[9] = test system: ZF4 (fibroblasts) cell line; assay: Neutral red, absorbance (NRa), AB/CFDA/NR multiplex, lysosome stability; assay type: cell-based, zebrafish (Danio rerio); conditions: Danio rerio, Fibroblast
[10] = test system: ZF4 (fibroblasts) cell line; assay: CFDA endpoint of AB/CFDA/NR multiplex, membrane stability; assay type: cell-based, zebrafish (Danio rerio); conditions: Danio rerio, Fibroblast
[11] = test system: ZFL (hepatocytes) cell line; assay: cells; assay type: cell-based, zebrafish (Danio rerio); conditions: Danio rerio, Hepatocyte; remark: listed apart in the source
[12] = test system: ZFL (hepatocytes) cell line; assay: cells; assay type: cell-based, zebrafish (Danio rerio); conditions: Danio rerio, Hepatocyte; remark: listed apart in the source
[13] = test system: ZFL (hepatocytes) cell line; assay: cells; assay type: cell-based, zebrafish (Danio rerio); conditions: Danio rerio, Hepatocyte; remark: listed apart in the source
[14] = test system: ZFL (hepatocytes) cell line; assay: cells; assay type: cell-based, zebrafish (Danio rerio); conditions: Danio rerio, Hepatocyte; remark: listed apart in the source
[15] = test system: ZFL (hepatocytes) cell line; assay: cells; assay type: cell-based, zebrafish (Danio rerio); conditions: Danio rerio, Hepatocyte; remark: listed apart in the source
[16] = test system: ZF4 (fibroblasts) cell line; assay: ATP assay (ATP/LDH multiplex), ATP metabolism; assay type: cell-based, zebrafish (Danio rerio); conditions: Danio rerio, Fibroblast
[17] = test system: ZF4 (fibroblasts) cell line; assay: MTS assay (MTS/BCA multiplex), NAD(P)H metabolism; assay type: cell-based, zebrafish (Danio rerio); conditions: Danio rerio, Fibroblast
[18] = ref Comptox, PubChem or DrugBank; cited from earlier work
[19] = test system: ZF4 (fibroblasts) cell line; assay: Neutral red, fluorescence (NRf), AB/CFDA/NR multiplex, lysosome stability; assay type: cell-based, zebrafish (Danio rerio); conditions: Danio rerio, Fibroblast
[20] = test system: ZF4 (fibroblasts) cell line; assay: alamarBlue (AB) endpoint of AB/CFDA/NR multiplex, cellular respiration; assay type: cell-based, zebrafish (Danio rerio); conditions: Danio rerio, Fibroblast

Compound: CO[C@H]1C[C@H](O[C@H]2[C@H](C)O[C@@H](O[C@@H]3/C(C)=C/C[C@@H]4C[C@@H](C[C@]5(C=C[C@H](C)[C@@H](C6CCCCC6)O5)O4)OC(=O)[C@@H]4C=C(C)[C@@H](O)[C@H]5OC/C(=C\C=C\[C@@H]3C)[C@]54O)C[C@@H]2OC)O[C@@H](C)[C@@H]1O [Doramectin, doramectin]
- potency ratio IC50;nom/EC50;nom (median) [1]: 7.68
- IC50 ([2]; BCA - ZF4, log10 of IC50, read-out: LogIC50 (converted)): 9.03 µM
- IC50 ([2]; BCA - ZF4, read-out: IC50): 9.03 µM
- IC50 ([2]; ZF4, 48 h exposure, nominal, log10, read-out: logIC50 (log10 IC50;nom) BCA (converted)): 9.12 µM
- IC50 ([2]; ZF4, 48 h exposure, nominal, read-out: IC50;nom BCA): 9.03 µM
- EC50 ([3]; 144 hpf, converted): 0.645 µM
- logEC50 144 hpf ([3]; log10): -6.19 M
- AC50 [4]: 1.87 µM
- IC50 ([5]; MTS - ZFL, log10 of IC50, read-out: LogIC50 (converted)): 9.41 µM
- IC50 ([5]; MTS - ZFL, read-out: IC50): 9.42 µM
- IC50 ([5]; ZFL, 48 h exposure, nominal, log10, read-out: logIC50 (log10 IC50;nom) MTS (converted)): 9.33 µM
- IC50 ([5]; ZFL, 48 h exposure, nominal, read-out: IC50;nom MTS): 9.42 µM
- difference in toxicity (EC50;nom) between 48 hpf and 144 hpf ([6]; 48 hpf time point less sensitive than 144 hpf): marginally more toxic
- log EC50;nom (mFET) ([6]; 48 hpf, nominal, log10, listed as Dor): -5.914 M
- EC50 ([6]; 48 hpf, nominal, log10, read-out: log EC50;nom (mFET) (converted)): 1.23 µM
- EC50 ([6]; 48 hpf, nominal, read-out: EC50;nom (embryo)): 1.1 µg/mL
- EC50 ([6]; read-out: EC50 48hpf): 1.22 µM
- EC50 ([6]; read-out: EC50;nom (mFET)): 1.22 µM
- IC50 ([7]; Danio rerio, log10, read-out: Mean log IC50nom (converted)): 9.12 µM
- Mean log IC50nom ([7]; log10, listed as Dor): -5.037 M
- IC50 ([8]; CFDA - ZFL, log10 of IC50, read-out: LogIC50 (converted)): 9.33 µM
- IC50 ([8]; CFDA - ZFL, read-out: IC50): 9.33 µM
- IC50 ([8]; ZFL, 48 h exposure, nominal, log10, read-out: logIC50 (log10 IC50;nom) CFDA (converted)): 9.33 µM
- IC50 ([8]; ZFL, 48 h exposure, nominal, read-out: IC50;nom CFDA): 9.33 µM
- IC50 ([9]; NR-abs - ZF4, log10 of IC50, read-out: LogIC50 (converted)): 14.6 µM
- IC50 ([9]; NR-abs - ZF4, read-out: IC50): 14.6 µM
- IC50 ([9]; ZF4, 48 h exposure, nominal, log10, read-out: logIC50 (log10 IC50;nom) NRa (converted)): 14.5 µM
- IC50 ([9]; ZF4, 48 h exposure, nominal, read-out: IC50;nom NRa): 14.6 µM
- IC50 ([9]; ZF4 cell line, NRa endpoint, nominal, read-out: IC50;nom): 13.1 µg/mL
- IC50 ([10]; CFDA - ZF4, log10 of IC50, read-out: LogIC50 (converted)): 16.8 µM
- IC50 ([10]; CFDA - ZF4, read-out: IC50): 16.8 µM
- IC50 ([10]; ZF4, 48 h exposure, nominal, log10, read-out: logIC50 (log10 IC50;nom) CFDA (converted)): 17 µM
- IC50 ([10]; ZF4, 48 h exposure, nominal, read-out: IC50;nom CFDA): 16.8 µM
- IC50 ([11]; NR-abs - ZFL, log10 of IC50, read-out: LogIC50 (converted)): 4.52 µM
- IC50 ([11]; NR-abs - ZFL, read-out: IC50): 4.52 µM
- IC50 ([11]; ZFL, 48 h exposure, nominal, log10, read-out: logIC50 (log10 IC50;nom) NRa (converted)): 4.57 µM
- IC50 ([11]; ZFL, 48 h exposure, nominal, read-out: IC50;nom NRa): 4.52 µM
- IC50 ([12]; ATP - ZFL, log10 of IC50, read-out: LogIC50 (converted)): 15.9 µM
- IC50 ([12]; ATP - ZFL, read-out: IC50): 15.9 µM
- IC50 ([12]; ZFL, 48 h exposure, nominal, log10, read-out: logIC50 (log10 IC50;nom) ATP (converted)): 15.8 µM
- IC50 ([12]; ZFL, 48 h exposure, nominal, read-out: IC50;nom ATP): 15.9 µM
- IC50 ([13]; NR-fluo - ZFL, log10 of IC50, read-out: LogIC50 (converted)): 5.08 µM
- IC50 ([13]; NR-fluo - ZFL, read-out: IC50): 5.08 µM
- IC50 ([13]; ZFL, 48 h exposure, nominal, log10, read-out: logIC50 (log10 IC50;nom) NRf (converted)): 5.13 µM
- IC50 ([13]; ZFL, 48 h exposure, nominal, read-out: IC50;nom NRf): 5.08 µM
- IC50 ([14]; AB - ZFL, log10 of IC50, read-out: LogIC50 (converted)): 6.74 µM
- IC50 ([14]; AB - ZFL, read-out: IC50): 6.74 µM
- IC50 ([14]; ZFL, 48 h exposure, nominal, log10, read-out: logIC50 (log10 IC50;nom) AB (converted)): 6.76 µM
- IC50 ([14]; ZFL, 48 h exposure, nominal, read-out: IC50;nom AB): 6.74 µM
- IC50 ([15]; BCA - ZFL, log10 of IC50, read-out: LogIC50 (converted)): 4.44 µM
- IC50 ([15]; BCA - ZFL, read-out: IC50): 4.44 µM
- IC50 ([15]; ZFL, 48 h exposure, nominal, log10, read-out: logIC50 (log10 IC50;nom) BCA (converted)): 4.47 µM
- IC50 ([15]; ZFL, 48 h exposure, nominal, read-out: IC50;nom BCA): 4.44 µM
- IC50 ([16]; ATP - ZF4, log10 of IC50, read-out: LogIC50 (converted)): 4.38 µM
- IC50 ([16]; ATP - ZF4, read-out: IC50): 4.38 µM
- IC50 ([16]; ZF4, 48 h exposure, nominal, log10, read-out: logIC50 (log10 IC50;nom) ATP (converted)): 4.37 µM
- IC50 ([16]; ZF4, 48 h exposure, nominal, read-out: IC50;nom ATP): 4.38 µM
- IC50 ([17]; MTS - ZF4, log10 of IC50, read-out: LogIC50 (converted)): 12.3 µM
- IC50 ([17]; MTS - ZF4, read-out: IC50): 12.3 µM
- IC50 ([17]; ZF4, 48 h exposure, nominal, log10, read-out: logIC50 (log10 IC50;nom) MTS (converted)): 12.3 µM
- IC50 ([17]; ZF4, 48 h exposure, nominal, read-out: IC50;nom MTS): 12.3 µM
- BCF [18]: 5.26
- Physiological charge [18]: 0
- logKoa [18]: 9.63
- logKow [18]: 5.24
- pKa (Strongest Acidic) [18]: 12.47
- pKa (Strongest Basic) [18]: -3.4
- w_solubility (water solubility) [18]: 39.5 µM
- IC50 ([19]; NR-fluo - ZF4, log10 of IC50, read-out: LogIC50 (converted)): 15.3 µM
- IC50 ([19]; NR-fluo - ZF4, read-out: IC50): 15.3 µM
- IC50 ([19]; ZF4, 48 h exposure, nominal, log10, read-out: logIC50 (log10 IC50;nom) NRf (converted)): 15.5 µM
- IC50 ([19]; ZF4, 48 h exposure, nominal, read-out: IC50;nom NRf): 15.3 µM
- IC50 ([20]; AB - ZF4, log10 of IC50, read-out: LogIC50 (converted)): 17.1 µM
- IC50 ([20]; AB - ZF4, read-out: IC50): 17.1 µM
- IC50 ([20]; ZF4, 48 h exposure, nominal, log10, read-out: logIC50 (log10 IC50;nom) AB (converted)): 17 µM
- IC50 ([20]; ZF4, 48 h exposure, nominal, read-out: IC50;nom AB): 17.1 µM
